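Following 48 hours of exposure in 96-well plates, responses at five concentrations were used to interpolate endpoints linearly. At the GI50, growth is halved. TGI: total growth inhibition.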

Test systems include CCRF-CEM leukemia; HCT-15 colon; HL-60(TB) leukemia; KM12 colon; NCI-H23 lung; NCI-H522 lung; OVCAR-4 ovarian; SF-539 CNS.
Holding throughout (assay): inhibition of tumour cell growth, NCI panel, 48 h

As for `CC(C)(C)c1ccc(C(=O)N/N=C/c2ccc(O)cc2O)cc1`, the GI50 is 0.26 µM in the test on CCRF-CEM leukemia; 0.325 µM in the test on HCT-15 colon; 0.411 µM in the test on HL-60(TB) leukemia; 0.418 µM with KM12 colon; 0.839 µM with NCI-H23 lung; 1.2 µM in the test on NCI-H522 lung. For the same molecule, the GI50 was 0.238 µM in the test on OVCAR-4 ovarian and 452 nM in the test with SF-539 CNS. The TGI is over 36.9 µM in the test with CCRF-CEM leukemia; 2.12 µM in the test on HCT-15 colon; 8.27 µM with HL-60(TB) leukemia; 2.48 µM with KM12 colon; 13.3 µM in the test on NCI-H23 lung; 14 µM in the test on NCI-H522 lung. The TGI in the test with OVCAR-4 ovarian is 14.9 µM; with SF-539 CNS it was 2.98 µM.
For the molecule `CC1OC(OC2C(OC3C[C@@]4(C)C(C[C@H](O)[C@H]5[C@H](C6(C)CCC(C(C)(C)O)O6)CCC54C)[C@]4(C)CC[C@@H](O)C(C)(C)C34)OC(CO)C(O)C2O)C(O)C(O)C1O` (some centres undefined) (tested in a mixture with another compound), the TGI in the test with CCRF-CEM leukemia, in the test on HCT-15 colon, in the test with HL-60(TB) leukemia, in the test on KM12 colon, in the test on NCI-H23 lung and with NCI-H522 lung was over 100 µM throughout. In addition, the TGI in the test with OVCAR-4 ovarian and with SF-539 CNS was over 100 µM throughout.
As for `CN(C)CCCNC(=O)c1cc2c3ccccc3[nH]c2c2ncccc12`, the GI50 is 4.31 µM in the test on CCRF-CEM leukemia; 11.6 µM in the test on HCT-15 colon; 16 µM in the test on HL-60(TB) leukemia; 19.8 µM in the test on KM12 colon; 14.6 µM in the test on NCI-H23 lung; 14.5 µM in the test with NCI-H522 lung. The GI50 was 21 µM with OVCAR-4 ovarian and 10800 nM in the test with SF-539 CNS. The TGI was determined as 56.4 µM with CCRF-CEM leukemia; 58.5 µM with HCT-15 colon; 41.7 µM in the test with HL-60(TB) leukemia; 67.3 µM in the test on KM12 colon; 29.2 µM in the test with NCI-H23 lung; 37.7 µM in the test on NCI-H522 lung. In addition, the TGI in the test on OVCAR-4 ovarian turned out to be 81.4 µM; with SF-539 CNS it was 23.4 µM.
On to `CCN(CC)c1ccc(/C=C/C(=O)c2cccc(NS(C)(=O)=O)c2)cc1`, for which the GI50 with CCRF-CEM leukemia was 3.19 µM; in the test with HCT-15 colon, 3.44 µM; in the test with HL-60(TB) leukemia it was 20 µM; in the test with KM12 colon, 3.18 µM; in the test on NCI-H23 lung, 4.51 µM; with NCI-H522 lung it was 87.7 µM. In addition, the GI50 with OVCAR-4 ovarian was 6.27 µM; in the test with SF-539 CNS, 4940 nM. Besides, the TGI in the test on CCRF-CEM leukemia is 18.1 µM; in the test on HCT-15 colon it was over 100 µM; in the test with HL-60(TB) leukemia, over 100 µM; in the test with KM12 colon it was over 100 µM; with NCI-H23 lung, over 100 µM; in the test with NCI-H522 lung, over 100 µM. Moreover, the TGI with OVCAR-4 ovarian and in the test with SF-539 CNS was over 100 µM in each case.
Take `COc1ccc(/C=C/c2nc(N3CCOCC3)c3cc(F)c(F)cc3n2)cc1OC`: the GI50 with CCRF-CEM leukemia is 4.7 µM; with HCT-15 colon it was 3 µM; in the test on HL-60(TB) leukemia it was 4 µM; with KM12 colon, 4.59 µM; with NCI-H23 lung it was 6.05 µM; in the test on NCI-H522 lung it was 6.86 µM. In addition, the GI50 is 1.43 µM in the test with OVCAR-4 ovarian and over 100000 nM with SF-539 CNS. Also, the TGI in the test with CCRF-CEM leukemia, in the test on HCT-15 colon, in the test with HL-60(TB) leukemia, in the test on KM12 colon, in the test with NCI-H23 lung and with NCI-H522 lung was over 100 µM throughout. The TGI in the test with OVCAR-4 ovarian and in the test on SF-539 CNS was over 100 µM in each case.
With `COc1ccc(N2CCN(CC(=O)N3CCN(c4nnc(-c5ccccc5)c(-c5ccccc5)n4)CC3)CC2)cc1`, the GI50 in the test with CCRF-CEM leukemia was 6.61 µM; in the test on HCT-15 colon it was 6.07 µM; with HL-60(TB) leukemia, 6.03 µM; in the test on KM12 colon, 5.67 µM; in the test with NCI-H23 lung, 6.06 µM; in the test with NCI-H522 lung, 19.1 µM. Also, the GI50 in the test with OVCAR-4 ovarian is 3.61 µM; in the test on SF-539 CNS, 7710 nM. Further, the TGI was over 100 µM with CCRF-CEM leukemia; over 100 µM in the test with HCT-15 colon; over 43.2 µM in the test on HL-60(TB) leukemia; over 100 µM in the test with KM12 colon; over 100 µM in the test on NCI-H23 lung; over 73.2 µM in the test with NCI-H522 lung. The results for the TGI in the test on OVCAR-4 ovarian and with SF-539 CNS were over 100 µM and over 81.9 µM, respectively.
On to `COc1ccc(S(=O)(=O)O)cc1NS(=O)(=O)c1ccc(C)cc1`, for which the TGI in the test on CCRF-CEM leukemia, with HCT-15 colon, with HL-60(TB) leukemia, in the test on KM12 colon, in the test on NCI-H23 lung and in the test on NCI-H522 lung was over 100 µM in each case. The TGI in the test with OVCAR-4 ovarian and with SF-539 CNS was over 100 µM in each case.
On to `CC(=O)OC1CCC2(C)C(CCC3C2CCC2(C)C(C4=CC(=O)OC4)CCC32)C1` (centres undefined), for which the GI50 is 1.45 µM in the test on CCRF-CEM leukemia; 16.2 µM in the test with HCT-15 colon; 7.9 µM in the test on HL-60(TB) leukemia; 22.2 µM with KM12 colon; 3.46 µM in the test with NCI-H23 lung; 1.53 µM with NCI-H522 lung. In addition, the GI50 is 12.1 µM in the test on OVCAR-4 ovarian and 2680 nM in the test with SF-539 CNS. Moreover, the TGI in the test on CCRF-CEM leukemia is 4.62 µM; with HCT-15 colon it was over 100 µM; in the test on HL-60(TB) leukemia, 30.7 µM; with KM12 colon, over 100 µM; in the test with NCI-H23 lung, 14.5 µM; in the test with NCI-H522 lung it was 3.99 µM. In addition, the TGI was determined as 95.1 µM with OVCAR-4 ovarian and 9.15 µM in the test on SF-539 CNS.
Turning to `O=C(Cc1ccc(/C=C/C(=O)c2ncc[nH]2)cc1)Nc1ccc(Br)cc1`, the GI50 in the test on CCRF-CEM leukemia is 0.759 µM; in the test with HCT-15 colon it was 0.787 µM; in the test on HL-60(TB) leukemia, 2.78 µM; in the test on KM12 colon, 0.864 µM; in the test on NCI-H23 lung, 2.2 µM; in the test on NCI-H522 lung, 2.76 µM. The results for the GI50 in the test with OVCAR-4 ovarian and with SF-539 CNS were 3.42 µM and 1470 nM, respectively. Moreover, the TGI is over 16.7 µM in the test with CCRF-CEM leukemia; 8.83 µM in the test with HCT-15 colon; 13.9 µM in the test on HL-60(TB) leukemia; 3.13 µM with KM12 colon; 8.5 µM with NCI-H23 lung; 7.34 µM in the test with NCI-H522 lung. Further, the TGI was over 16.7 µM in the test with OVCAR-4 ovarian and 3.56 µM in the test on SF-539 CNS.
On to `Cc1cc[c-]cc1.Fc1c[c-]c(-c2ccccn2)c(F)c1.N#CCC[PH+](CCC#N)c1ccccc1.[Pt+2]`, for which the GI50 with CCRF-CEM leukemia is 3.49 µM; in the test with HCT-15 colon it was 2.89 µM; with HL-60(TB) leukemia, 2.37 µM; in the test on KM12 colon it was 3.39 µM; in the test with NCI-H23 lung it was 3.45 µM; in the test with NCI-H522 lung, 1.96 µM. Also, the results for the GI50 with OVCAR-4 ovarian and with SF-539 CNS were 2.97 µM and 2920 nM, respectively. In addition, the TGI was over 100 µM in the test on CCRF-CEM leukemia; 11.6 µM in the test with HCT-15 colon; 18.1 µM in the test on HL-60(TB) leukemia; 13.2 µM in the test on KM12 colon; 12.9 µM in the test on NCI-H23 lung; 5.58 µM with NCI-H522 lung. For the same molecule, the values for the TGI in the test on OVCAR-4 ovarian and with SF-539 CNS were 24.5 µM and 10.3 µM, respectively.

These data come from PubChem BioAssay (NCI).
